Reference: US9656988B2 (Pharmacyclics LLC, priority 2013, dated 2017)
pIC50: −log10 of the molar value. Read-outs that look alike come from different tables or passages of the source.

Target: BTK (Homo sapiens (Human), UniProt Q06187)
Experiment: Btk in vitro inhibitory activity (one of Method A TR-FRET, Method B electrophoretic mobility shift, Method C radiometric filter binding)
Type: biochemical
[1] = determined using one of the methods of Example 355a, 355b and 355c, read-out: BTK IC50

Sequence of BTK (Q06187 whole entry): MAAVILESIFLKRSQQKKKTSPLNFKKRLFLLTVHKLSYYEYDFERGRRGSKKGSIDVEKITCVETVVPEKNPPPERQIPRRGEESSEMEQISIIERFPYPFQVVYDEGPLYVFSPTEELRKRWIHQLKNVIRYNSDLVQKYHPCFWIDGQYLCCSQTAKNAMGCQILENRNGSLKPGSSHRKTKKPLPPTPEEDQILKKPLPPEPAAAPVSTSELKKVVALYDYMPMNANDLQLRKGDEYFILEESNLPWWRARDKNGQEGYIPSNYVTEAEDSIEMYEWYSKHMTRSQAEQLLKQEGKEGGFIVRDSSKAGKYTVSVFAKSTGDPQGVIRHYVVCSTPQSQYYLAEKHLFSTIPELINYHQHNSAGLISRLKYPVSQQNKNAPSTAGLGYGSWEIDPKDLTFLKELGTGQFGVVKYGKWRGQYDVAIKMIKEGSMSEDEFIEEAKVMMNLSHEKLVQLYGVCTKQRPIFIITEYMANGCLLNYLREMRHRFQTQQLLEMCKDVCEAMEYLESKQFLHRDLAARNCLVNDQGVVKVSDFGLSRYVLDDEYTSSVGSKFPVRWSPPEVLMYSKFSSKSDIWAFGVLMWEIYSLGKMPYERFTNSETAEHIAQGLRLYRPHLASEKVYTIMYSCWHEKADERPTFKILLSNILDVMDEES

Row | Compound | pIC50 [1] | pIC50 (read-out: Btk (IC50)) | pIC50 (Btk (IC50))
1 | CN(C/C=C/C(=O)N1CCC[C@@H](N(C)c2cnc(C(N)=O)c(Nc3ccc(C(=O)N4CCOCC4)cc3)n2)C1)C1CC1 [Example 156, (R,E)-5-((1-(4-(cyclopropyl(methyl)amino)but-2-enoyl)piperidin-3-yl)(methyl)amino)-3-(4-(morpholine-4-carbonyl)phenylamino)pyrazine-2-carboxamide] | > 8.00 | > 8.00 | 
2 | CC#CC(=O)N1CCC[C@@H](N(C)c2cnc(C(N)=O)c(Nc3ccc(C(=O)N4CCOCC4)cc3)n2)C1 [Example 157, (R)-5-((1-but-2-ynoylpiperidin-3-yl)(methyl)amino)-3-(4-(morpholine-4-carbonyl)phenylamino)pyrazine-2-carboxamide] | > 8.00 | > 8.00 | 
3 | CN(C)C/C=C/C(=O)N1CCC[C@@H](N(C)c2cnc(C(N)=O)c(Nc3ccc(Oc4ccccc4)cc3)n2)C1 [Example 158, (R,E)-5-((1-(4-(dimethylamino)but-2-enoyl)piperidin-3-yl)(methyl)amino)-3-(4-phenoxyphenylamino)pyrazine-2-carboxamide] | > 8.00 |  | 
4 | CCOc1ccc(C(=O)N[C@@H]2CCCN(c3nnc(C(N)=O)c(Nc4ccc(C#N)cc4)n3)C2)cc1 [Example 159, (R)-5-(4-cyanophenylamino)-3-(3-(4-ethoxybenzamido)piperidin-1-yl)-1,2,4-triazine-6-carboxamide] | 6.00 to 7.00 |  | 6.00 to 7.00
5 | COc1ccc(C(=O)N[C@@H]2CCCN(c3cnc(C(N)=O)c(Nc4ccc(N5CCS(=O)(=O)CC5)cc4)n3)C2)cc1 [Example 161, (R)-5-(3-(4-methoxybenzamido)piperidin-1-yl)-3-(4-(1,1-dioxothiomorpholino)phenylamino)pyrazine-2-carboxamide] | > 8.00 | > 8.00 | 
6 | COc1ccc(C(=O)N[C@@H]2CCCN(c3cnc(C(N)=O)c(Nc4ccc(C5CCNCC5)cc4F)n3)C2)cc1 [Example 162, (R)-3-(2-fluoro-4-(piperidin-4-yl)phenylamino)-5-(3-(4-methoxybenzamido)piperidin-1-yl)pyrazine-2-carboxamide] | > 8.00 | 7.00 to 8.00 | 
7 | COc1ccc(C(=O)N[C@@H]2CCCN(c3cnc(C(N)=O)c(Nc4ccc(N5CCCCC5)cc4)n3)C2)cc1 [Example 164, (R)-5-(3-(4-methoxybenzamido)piperidin-1-yl)-3-(4-(piperidin-1-yl)phenylamino)pyrazine-2-carboxamide] | > 8.00 |  | 
8 | CN(C)C(=O)N[C@@H]1CCCN(c2cnc(C(N)=O)c(Nc3ccc(C4CCN(C(=O)C5CC5)CC4)cc3)n2)C1 [Example 171, (R)-3-(4-(1-(cyclopropanecarbonyl)piperidin-4-yl)phenylamino)-5-(3-(3,3-dimethylureido)piperidin-1-yl)pyrazine-2-carboxamide] | > 8.00 | > 8.00 | 
9 | CN(C)C(=O)N[C@@H]1CCCN(c2cnc(C(N)=O)c(Nc3ccc(C4CCN(c5ccccn5)CC4)cc3)n2)C1 [Example 174, (R)-5-(3-(3,3-dimethylureido)piperidin-1-yl)-3-(4-(1-(pyridin-2-yl)piperidin-4-yl)phenylamino)pyrazine-2-carboxamide] | 7.00 to 8.00 | 7.00 to 8.00 | 
10 | CN(C)C(=O)N[C@@H]1CCCN(c2cnc(C(N)=O)c(Nc3ccc(C4CCN(C5CCC5)CC4)cc3)n2)C1 [Example 175, (R)-3-(4-(1-cyclobutylpiperidin-4-yl)phenylamino)-5-(3-(3,3-dimethylureido)piperidin-1-yl)pyrazine-2-carboxamide] | > 8.00 | > 8.00 | 

The remaining lines, values ahead:

Row | pIC50 [1] | pIC50 (read-out: Btk (IC50)) | pIC50 (Btk (IC50)) | Compound
11 | 7.00 to 8.00 |  |  | COc1ccc(C(=O)N[C@@H]2CCCN(c3cnc(C(N)=O)c(Nc4ccc(C(C)C)cc4)n3)C2)cc1 [Example 160, (R)-3-(4-isopropylphenylamino)-5-(3-(4-methoxybenzamido)piperidin-1-yl)pyrazine-2-carboxamide]
12 | > 8.00 | > 8.00 |  | COc1ccc(C(=O)N[C@@H]2CCCN(c3cnc(C(N)=O)c(Nc4ccc(C5CCNCC5)c(F)c4)n3)C2)cc1 [Example 163, (R)-3-(3-fluoro-4-(piperidin-4-yl)phenylamino)-5-(3-(4-methoxybenzamido)piperidin-1-yl)pyrazine-2-carboxamide]
13 | > 8.00 |  |  | CN1CCC(c2ccc(Nc3nc(N4CCC[C@@H](NC(=O)N(C)C)C4)cnc3C(N)=O)cc2)CC1 [Example 165]
14 | > 8.00 |  |  | CCN(C)C(=O)N[C@@H]1CCCN(c2cnc(C(N)=O)c(Nc3ccc(C4CCN(C)CC4)cc3)n2)C1 [Example 166, (R)-5-(3-(3-ethyl-3-methylureido)piperidin-1-yl)-3-(4-(1-methylpiperidin-4-yl)phenylamino)pyrazine-2-carboxamide]
15 | > 8.00 | > 8.00 |  | CCN(CC)C(=O)N[C@@H]1CCCN(c2cnc(C(N)=O)c(Nc3ccc(C4CCN(C)CC4)cc3)n2)C1 [Example 167, (R)-5-(3-(3,3-diethylureido)piperidin-1-yl)-3-(4-(1-methylpiperidin-4-yl)phenylamino)pyrazine-2-carboxamide]
16 | > 8.00 | > 8.00 |  | CN1CCC(c2ccc(Nc3nc(N4CCC[C@@H](NC(=O)c5ccc(F)cc5)C4)cnc3C(N)=O)cc2)CC1 [Example 168, (R)-5-(3-(4-fluorobenzamido)piperidin-1-yl)-3-(4-(1-methylpiperidin-4-yl)phenylamino)pyrazine-2-carboxamide]
17 | > 8.00 |  |  | CCOc1ccc(C(=O)N[C@@H]2CCCN(c3cnc(C(N)=O)c(Nc4ccc(C5CCN(C)CC5)cc4)n3)C2)cc1 [Example 169, (R)-5-(3-(4-ethoxybenzamido)piperidin-1-yl)-3-(4-(1-methylpiperidin-4-yl)phenylamino)pyrazine-2-carboxamide]
18 | > 8.00 | > 8.00 |  | CN(C)C(=O)N[C@@H]1CCCN(c2cnc(C(N)=O)c(Nc3ccc(C4CCN(C(=O)N(C)C)CC4)cc3)n2)C1 [Example 170, (R)-3-(4-(1-(dimethylcarbamoyl)piperidin-4-yl)phenylamino)-5-(3-(3,3-dimethylureido)piperidin-1-yl)pyrazine-2-carboxamide]
19 | > 8.00 | > 8.00 |  | CN(C)C(=O)N[C@@H]1CCCN(c2cnc(C(N)=O)c(Nc3ccc(C4CCN(S(C)(=O)=O)CC4)cc3)n2)C1 [Example 172, (R)-5-(3-(3,3-dimethylureido)piperidin-1-yl)-3-(4-(1-(methylsulfonyl)piperidin-4-yl)phenylamino)pyrazine-2-carboxamide]
20 | 7.00 to 8.00 |  | 7.00 to 8.00 | CN(C)C(=O)N[C@@H]1CCCN(c2cnc(C(N)=O)c(Nc3ccc(C4CCN(S(=O)(=O)N(C)C)CC4)cc3)n2)C1 [Example 173, (R)-3-(4-(1-(N,N-dimethylsulfamoyl)piperidin-4-yl)phenylamino)-5-(3-(3,3-dimethylureido)piperidin-1-yl)pyrazine-2-carboxamide]
21 | > 8.00 | > 8.00 |  | CN(C)C(=O)N[C@@H]1CCCN(c2cnc(C(N)=O)c(Nc3ccc(C4CCN(C5CCOCC5)CC4)cc3)n2)C1 [Example 176, (R)-5-(3-(3,3-dimethylureido)piperidin-1-yl)-3-(4-(1-(tetrahydro-2H-pyran-4-yl)piperidin-4-yl)phenylamino)pyrazine-2-carboxamide]
